Results from ChEMBL document CHEMBL4266046, “β-Triketone-Monoterpene Hybrids from the Flowers of the Australian Tree Corymbia intermedia” (J Nat Prod, 2018).

What was measured:
[1] = system: Plasmodium falciparum; assay: Antiplasmodial activity against synchronized ring stage of chloroquine-sensitive Plasmodium falciparum 3D7 infected in human erythrocytes assessed as inhibition of parasite replication at higher concentration after 72 hrs by DAPI staining based fluorescence imaging analysis relative to control; assay type: functional
[2] = system: Plasmodium falciparum; assay: Antiplasmodial activity against synchronized ring stage of chloroquine-sensitive Plasmodium falciparum 3D7 infected in human erythrocytes assessed as inhibition of parasite replication after 72 hrs by DAPI staining based fluorescence imaging analysis; assay type: functional, organism-based; settings: 3D7, 72 h
[3] = system: HEK293; assay: (§1) Cytotoxicity against HEK293 cells assessed as inhibition of cell proliferation at 100 uM relative to control; assay type: cell-based; settings: human, hek293, 100 µM
[4] = as §1; assay type: cell-based; settings: human, HEK293 cells

IC50 [2]	Structure (SMILES)	inhibition (INH) [1]	Activity [3]	inhibition at 100 µM [4]
20.8 µM	CC1(C)C(=O)C2=C(O[C@@]3(C)[C@H](C[C@@H]4C[C@H]3C4(C)C)[C@H]2c2ccccc2)C(C)(C)C1=O	100%	Non-Toxic	–
12.5 µM	CC1(C)C(=O)C2=C(O[C@]3(CC[C@H]4C[C@@H]3C4(C)C)C[C@@H]2c2ccccc2)C(C)(C)C1=O	–	–	64%
9.9 µM	CC1(C)C(=O)C2=C(O[C@]3(CC[C@H]4C[C@@H]3C4(C)C)C[C@H]2c2ccccc2)C(C)(C)C1=O	100%	–	–
